Experimental data taken from patent publication US9273058B2 (BRISTOL-MYERS SQUIBB COMPANY, priority 2013, dated 2016).

Target: CK1ε (Homo sapiens, UniProt P49674)
Experiment: CK1ε kinase assay (Caliper LabChip electrophoretic separation of fluoresceinated peptide substrate and product)
Format: biochemical
Conditions: 200 pM CK1ε, 50 μM ATP, 1.5 μM peptide, 22 hours at room temperature; read-out: CK1ε IC50 range
Description: (§1) CK1ε and CK1δ Kinase Assays
(§2) The kinase assay was performed in V-bottom 384-well plates. […] The reaction was incubated at room temperature for 22 hours and terminated by adding 45 μl of 35 mM EDTA to each sample. The reaction mixture was analyzed on the Caliper LABCHIP®3000 (Caliper, Hopkinton, Mass.) by electrophoretic separation of the unphosphorylated substrate and phosphorylated product. […] Compounds were dissolved at 10 mM in dimethylsulfoxide (DMSO) and evaluated at eleven concentrations. IC50 values were derived by non-linear regression analysis.

Sequence of CK1ε (P49674 whole entry): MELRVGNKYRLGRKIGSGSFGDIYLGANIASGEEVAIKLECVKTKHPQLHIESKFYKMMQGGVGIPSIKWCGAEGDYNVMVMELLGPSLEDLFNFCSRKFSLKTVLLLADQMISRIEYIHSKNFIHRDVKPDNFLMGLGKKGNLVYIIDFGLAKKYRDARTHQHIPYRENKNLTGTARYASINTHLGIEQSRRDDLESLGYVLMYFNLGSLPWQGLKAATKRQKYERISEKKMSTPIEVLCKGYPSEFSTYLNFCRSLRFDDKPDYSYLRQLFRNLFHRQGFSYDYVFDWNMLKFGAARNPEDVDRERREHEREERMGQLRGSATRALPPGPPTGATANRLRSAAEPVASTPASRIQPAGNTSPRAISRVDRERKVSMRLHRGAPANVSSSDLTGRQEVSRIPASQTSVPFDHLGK

SMILES | IC50 [nM]
CCC1CN(C(=O)NC(C)(C)C)Cc2c(C(N)=O)c(-c3ccc(F)c(Cl)c3)nn21 (single isomer, unassigned) [Compound A98, N^5-(tert-Butyl)-2-(3-chloro-4-fluorophenyl)-7-ethyl-6,7-dihydropyrazolo[1,5-a]pyrazine-3,5(4H)-dicarboxamide] | 0.01 to 10
NC(=O)c1c(-c2ccc(F)cc2)nn2c1CN(C(=O)NC1CCCCC1)CC2 [Compound 3, N^5-Cyclohexyl-2-(4-fluorophenyl)-6,7-dihydropyrazolo[1,5-a]pyrazine-3,5(4H)-dicarboxamide] | 10 to 100

Next, values leading:

IC50 [nM] | SMILES
10 to 100 | CC(C)(NC(=O)N1CCn2nc(-c3cccc(F)c3)c(C(N)=O)c2C1)c1ccc(F)cc1 [Compound 17, 2-(3-Fluorophenyl)-N^5-(2-(4-fluorophenyl)propan-2-yl)-6,7-dihydropyrazolo[1,5-a]pyrazine-3,5(4H)-dicarboxamide]
10 to 100 | CC(C)(NC(=O)N1CCn2nc(-c3cccc(F)c3)c(C(N)=O)c2C1)c1ccccc1 [Compound 25, 2-(3-Fluorophenyl)-N^5-(2-phenylpropan-2-yl)-6,7-dihydropyrazolo[1,5-a]pyrazine-3,5(4H)-dicarboxamide]
10 to 100 | NC(=O)c1c(-c2cccc(F)c2)nn2c1CN(C(=O)Nc1ccc(F)c(F)c1)CC2 [Compound 29, N^5-(3,4-Difluorophenyl)-2-(3-fluorophenyl)-6,7-dihydropyrazolo[1,5-a]pyrazine-3,5(4H)-dicarboxamide]
10 to 100 | NC(=O)c1c(-c2cccc(F)c2)nn2c1CN(C(=O)Nc1cc(Cl)ccc1F)CC2 [Compound 33, N^5-(5-Chloro-2-fluorophenyl)-2-(3-fluorophenyl)-6,7-dihydropyrazolo[1,5-a]pyrazine-3,5(4H)-dicarboxamide]
10 to 100 | NC(=O)c1c(-c2cccc(F)c2)nn2c1CN(C(=O)NCc1ccc(Cl)c(Cl)c1)CC2 [Compound 46, N^5-(3,4-Dichlorobenzyl)-2-(3-fluorophenyl)-6,7-dihydropyrazolo[1,5-a]pyrazine-3,5(4H)-dicarboxamide]
10 to 100 | COc1ccc(NC(=O)N2CCn3nc(-c4cccc(F)c4)c(C(N)=O)c3C2)cc1OC [Compound 66, N^5-(3,4-Dimethoxyphenyl)-2-(3-fluorophenyl)-6,7-dihydropyrazolo[1,5-a]pyrazine-3,5(4H)-dicarboxamide]
10 to 100 | NC(=O)c1c(-c2cccc(F)c2)nn2c1CN(C(=O)Nc1cccnc1)CC2 [Compound 68, 2-(3-Fluorophenyl)-N^5-(pyridin-3-yl)-6,7-dihydropyrazolo[1,5-a]pyrazine-3,5(4H)-dicarboxamide]
10 to 100 | NC(=O)c1c(-c2cccc(F)c2)nn2c1CN(C(=O)Nc1cncnc1)CC2 [Compound 84, 2-(3-Fluorophenyl)-N^5-(pyrimidin-5-yl)-6,7-dihydropyrazolo[1,5-a]pyrazine-3,5(4H)-dicarboxamide]
10 to 100 | Cc1ccc(NC(=O)N2CCn3nc(-c4cccc(F)c4)c(C(N)=O)c3C2)cn1 [Compound 86, 2-(3-Fluorophenyl)-N^5-(6-methylpyridin-3-yl)-6,7-dihydropyrazolo[1,5-a]pyrazine-3,5(4H)-dicarboxamide]
10 to 100 | NC(=O)c1c(-c2cccc(F)c2)nn2c1CN(C(=O)Nc1ccc(F)nc1)CC2 [Compound 87, 2-(3-Fluorophenyl)-N^5-(6-fluoropyridin-3-yl)-6,7-dihydropyrazolo[1,5-a]pyrazine-3,5(4H)-dicarboxamide]
10 to 100 | NC(=O)c1c(-c2cccc(F)c2)nn2c1CN(C(=O)Nc1ccc(OC(F)F)cc1)CC2 [Compound 89, N^5-(4-(Difluoromethoxy)phenyl)-2-(3-fluorophenyl)-6,7-dihydropyrazolo[1,5-a]pyrazine-3,5(4H)-dicarboxamide]

Target: CK1δ (Homo sapiens, UniProt P48730)
Sequence (P48730 whole entry): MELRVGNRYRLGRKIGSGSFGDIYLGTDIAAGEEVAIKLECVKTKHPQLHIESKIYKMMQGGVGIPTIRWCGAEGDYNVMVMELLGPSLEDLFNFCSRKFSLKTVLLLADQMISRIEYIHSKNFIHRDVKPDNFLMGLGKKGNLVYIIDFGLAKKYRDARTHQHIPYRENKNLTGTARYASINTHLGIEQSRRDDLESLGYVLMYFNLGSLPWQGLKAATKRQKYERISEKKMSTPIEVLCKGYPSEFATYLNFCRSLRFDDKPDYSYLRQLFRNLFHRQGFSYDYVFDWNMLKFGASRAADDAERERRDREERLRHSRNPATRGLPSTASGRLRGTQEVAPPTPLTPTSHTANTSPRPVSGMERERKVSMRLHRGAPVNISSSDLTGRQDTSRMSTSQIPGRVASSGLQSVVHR
Experiment: CK1δ kinase assay (Caliper LabChip electrophoretic separation of fluoresceinated peptide substrate and product)
Format: biochemical
Conditions: 200 pM CK1δ, 50 μM ATP, 1.5 μM peptide, 22 hours at room temperature; read-out: CK1δ IC50 range
Description: as §1, §2

SMILES | IC50 [nM]
NC(=O)c1c(-c2ccc(F)c(Cl)c2)nn2c1CN(C(=O)NC13CCC(C(F)F)(CC1)CC3)CC2 [Compound A57, 2-(3-Chloro-4-fluorophenyl)-N^5-(4-(difluoromethyl)bicyclo[2.2.2]octan-1-yl)-6,7-dihydropyrazolo[1,5-a]pyrazine-3,5(4H)-dicarboxamide] | 0.01 to 10
COC12CCC(NC(=O)N3CCn4nc(-c5ccc(F)c(Cl)c5)c(C(N)=O)c4C3)(CC1)CC2 [Compound A59, 2-(3-Chloro-4-fluorophenyl)-N^5-(4-methoxybicyclo[2.2.2]octan-1-yl)-6,7-dihydropyrazolo[1,5-a]pyrazine-3,5(4H)-dicarboxamide] | 0.01 to 10
COC12CCC(NC(=O)N3CCn4nc(-c5ccc(F)c(Cl)c5)c(C(N)=O)c4C3)(CC1)C(=O)C2 [Compound A60, 2-(3-Chloro-4-fluorophenyl)-N^5-(4-methoxy-2-oxobicyclo[2.2.2]octan-1-yl)-6,7-dihydropyrazolo[1,5-a]pyrazine-3,5(4H)-dicarboxamide] | 0.01 to 10
N#CC12C3C4C1C1C2C3C41NC(=O)N1CCn2nc(-c3ccc(F)c(Cl)c3)c(C(N)=O)c2C1 (stereo not drawn) [Compound A70, N^5-(4-Cyanocuban-1-yl)-2-(3-chloro-4-fluorophenyl)-6,7-dihydropyrazolo[1,5-a]pyrazine-3,5(4H)-dicarboxamide] | 0.01 to 10
NC(=O)c1c(-c2ccc(F)c(Cl)c2)nn2c1CN(C(=O)NC13C4C5C1C1C3C4C51F)CC2 (stereo not drawn) [Compound A71, N^5-(4-Fluorocuban-1-yl)-2-(3-chloro-4-fluorophenyl)-6,7-dihydropyrazolo[1,5-a]pyrazine-3,5(4H)-dicarboxamide] | 0.01 to 10
NC(=O)c1c(-c2ccc(F)c(Cl)c2)nn2c1CN(C(=O)NC13C4C5C6C4C1C6C53)CC2 (stereo not drawn) [Compound A72, N^5-(Cuban-1-yl)-2-(3-chloro-4-fluorophenyl)-6,7-dihydropyrazolo[1,5-a]pyrazine-3,5(4H)-dicarboxamide] | 0.01 to 10
NC(=O)c1c(-c2ccc(F)c(Cl)c2)nn2c1CN(C(=O)NC13CCC(CC1)C3)CC2 [Compound A73, N^5-(Bicyclo[2.2.1]heptan-1-yl)-2-(3-chloro-4-fluorophenyl)-6,7-dihydropyrazolo[1,5-a]pyrazine-3,5(4H)-dicarboxamide] | 0.01 to 10
N#Cc1ccc(C23CCC(NC(=O)N4CCn5nc(-c6cccc(Cl)c6)c(C(N)=O)c5C4)(CC2)CC3)cc1 [Compound A74, 2-(3-Chlorophenyl)-N^5-(4-(4-cyanophenyl)bicyclo[2.2.2]octan-1-yl)-6,7-dihydropyrazolo[1,5-a]pyrazine-3,5(4H)-dicarboxamide] | 0.01 to 10

Further lines, results first:

IC50 [nM] | SMILES
0.01 to 10 | CC1(NC(=O)N2CCn3nc(-c4cccc(Cl)c4)c(C(N)=O)c3C2)CCC1 [Compound A44, 2-(3-Chlorophenyl)-N^5-(1-methylcyclobutyl)-6,7-dihydropyrazolo[1,5-a]pyrazine-3,5(4H)-dicarboxamide]
0.01 to 10 | N#CC1(NC(=O)N2CCn3nc(-c4cccc(Cl)c4)c(C(N)=O)c3C2)CC1 [Compound A45, 2-(3-Chlorophenyl)-N^5-(1-cyanocyclopropyl)-6,7-dihydropyrazolo[1,5-a]pyrazine-3,5(4H)-dicarboxamide]
0.01 to 10 | NC(=O)c1c(-c2cccc(Cl)c2)nn2c1CN(C(=O)NC13CCC(F)(CC1)CC3)CC2 [Compound A75, 2-(3-Chlorophenyl)-N^5-(4-fluorobicyclo[2.2.2]octan-1-yl)-6,7-dihydropyrazolo[1,5-a]pyrazine-3,5(4H)-dicarboxamide]
